In patent US6521631B2, “Heterocyclic sulfonamides” (Hoffmann-La Roche Inc., priority 1999, dated 2003):

Experiments:
isolated rat aorta rings = conditions: for pA2: shift to the right of the endothelin-1 dosage-activity curve, endothelium-denuded thorax aorta rings
Method: Inhibition of Endothelin-induced Contractions in Isolated Rat Aorta Rings
Rings with a length of 5 mm were cut out from the thorax aorta of adult Wistar-Kyoto rats. The endothelium was removed by lightly rubbing the internal surface. Each ring was immersed at 37° C. in 10 ml of Krebs-Henseleit solution in an isolated bath while gassing with 95% O2 and 5% CO2. The isometric stretching of the rings was measured. The rings were stretched to a pre-tension of 3 g. After incubation for 10 minutes with the test compound or vehicle cumulative dosages of endothelin-1 were added. […] This shift to the right (or “dose ratio”, DR) corresponds to the quotient from the EC50 values of endothelin-1 in the presence and in the absence of antagonist, with the EC50 value denoting the endothelin concentration required for a half-maximum contraction.
The corresponding pA2 value, which is a measure of the activity of the test compound, was calculated using a computer programme according to the following equation from the “dose ratio” DR for each individual dosage-activity curve.
pA2=log(DR−1)−log(antagonist-concentration)

human ETA receptors = target: T1, human ETA receptors (Homo sapiens, UniProt P25101); assay: Inhibition of 125I-endothelin binding to recombinant human ETA receptors expressed in Baculovirus-infected insect cells; conditions: recombinant human ETA receptor membranes, 20 pM 125I-endothelin; read-out: IC50, concentration required to inhibit 50% of the specific binding of 125I-endothelin
T1 construct: made in house; host or cells: Baculovirus-infected insect cells (membrane preparation)
T1 sequence (P25101 21-427): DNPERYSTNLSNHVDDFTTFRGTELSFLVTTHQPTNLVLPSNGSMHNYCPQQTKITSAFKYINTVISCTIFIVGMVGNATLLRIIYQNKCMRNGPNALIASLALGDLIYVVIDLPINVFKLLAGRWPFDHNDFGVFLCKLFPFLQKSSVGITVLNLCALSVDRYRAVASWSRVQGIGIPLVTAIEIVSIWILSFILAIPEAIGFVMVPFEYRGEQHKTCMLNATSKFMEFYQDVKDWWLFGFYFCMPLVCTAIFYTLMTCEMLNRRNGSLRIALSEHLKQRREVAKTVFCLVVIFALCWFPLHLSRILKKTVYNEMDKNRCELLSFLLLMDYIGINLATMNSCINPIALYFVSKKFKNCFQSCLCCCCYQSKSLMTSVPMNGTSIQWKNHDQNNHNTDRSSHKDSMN
Method: I. Inhibition of Endothelin Binding to Recombinant Human ETA Receptors Expressed in Baculovirus-infected Insect Cells
A cDNA coding for human ETA receptors of human placenta was cloned (M. Adachi, Y.-Y. Yang, Y. Furuichi and C. Miyamoto, BBRC 180, 1265-1272) and expressed in the Baculovirus-insect cell system. Baculovirus-infected insect cells from a 23 l fermenter are centrifuged off (3000×g, 15 minutes, 4° C.) 60 hours after the infection, re-suspended in Tris buffer (5 mM, pH 7.4, 1 mM MgCl2) and again centrifuged. After a further re-suspension and centrifugation the cells are suspended in 800 ml of the same buffer and freeze-dried at −120° C. The cells disintegrate when the suspension in this hypotonic buffer mixture is thawed. After a repeated […]/thawing cycle the suspension is homogenised and centrifuged (25000×g, 15 minutes, 4° C.). After suspension in Tris buffer (75 mM, pH 7.4, 25 mM MgCl2, 250 mM sucrose) 1 ml aliquots (protein content about 3.5 mg/ml) are stored at −85° C.
For the binding assay, the freeze-dried membrane preparations are thawed and, after centrifugation at 20° C. and 25000 g for 10 minutes, re-suspended in assay buffer (50 mM Tris buffer, pH 7.4, containing 25 mM MnCl2, 1 mM EDTA and 0.5% bovine serum albumin). 100 μl of this membrane suspension containing 70 μg of protein are incubated with 50 μl of ^125I-endothelin (specific activity 2200 Ci/mMol) in assay buffer (25000 cpm, final concentration 20 pM) and 100 μl of assay buffer containing varying concentrations of test compound. The incubation is carried out at 20° C. for 2 hours or at 4° C. for 24 hours. The separation of free and membrane-bound radio-ligands is carried out by filtration over a glass fibre filter. The inhibitory activity of compounds of formula (I) determined in this test procedure is given in Table 1 as the IC50, i.e. as the concentration [nM] which is required to inhibit 50% of the specific binding of ^125I-endothelin.

IC50 (human ETA receptors) | melting point | SMILES | pA2 (isolated rat aorta rings) | EC50 (isolated rat aorta rings; read-out: EC50 of endothelin in the absence of test compounds, endothelin concentration required for a half-maximum contraction, no antagonist)
≤ 50 nM |  | COc1ccccc1Oc1c(NS(=O)(=O)c2ccc(C)cn2)nc(-c2ccncc2)nc1OC [Example 1, 5-methyl-pyridine-2-sulfonic acid[6-methoxy-5-(2-methoxy-phenoxy)-2-pyridin-4-yl-pyrimidin-4-yl]-amide] | ≧8.0 | 
≤ 50 nM | 195 to 197 °C | COc1ccccc1Oc1c(NS(=O)(=O)c2ccc(C(C)C)cn2)nc(-c2ccncc2)nc1OC [Example 2, 5-isopropyl-pyridine-2-sulfonic acid[6-methoxy-5-(2-methoxy-phenoxy)-2-pyridin-4-yl-pyrimidin-4-yl]-amide] | ≧8.0 | 
≤ 50 nM |  | C=C(C)c1ccc(S(=O)(=O)Nc2nc(-c3ccncc3)nc(OC)c2Oc2ccccc2OC)nc1 [Example 3, 5-isopropenyl-pyridine-2-sulfonic acid[6-methoxy-5-(2-methoxy-phenoxy)-2-pyridin-4-yl-pyrimidin-4-yl]-amide] |  | 
 |  | CC[C@H](C)[C@H](NC(=O)[C@H](CC(=O)O)NC(=O)[C@H](CC(C)C)NC(=O)[C@H](Cc1c[nH]cn1)NC(=O)[C@@H]1CSSC[C@H](N)C(=O)N[C@@H](CO)C(=O)N[C@H]2CSSC[C@H](NC(=O)[C@H](CCC(=O)O)NC(=O)[C@H](CCCCN)NC(=O)[C@H](CC(=O)O)NC(=O)[C@H](CCSC)NC(=O)[C@H](CC(C)C)NC(=O)[C@H](CO)NC(=O)[C@H](CO)NC2=O)C(=O)N[C@@H](C(C)C)C(=O)N[C@@H](Cc2ccc(O)cc2)C(=O)N[C@@H](Cc2ccccc2)C(=O)N1)C(=O)N[C@H](C(=O)N[C@@H](Cc1c[nH]c2ccccc12)C(=O)O)[C@@H](C)CC [endothelin, reference compound] |  | 0.3 nM
